Melting point data for 86 molecules are collected here from a melting point compilation (Tetko et al.; mined from patent text by program, amines drawn as free bases though some values may be those of a salt).

What is called melting point is the temperature of the solid-liquid transition.

Each structure is given as a SMILES string.

Molecule `Cc1cccc(NC(=O)NC2N=C(CO)c3cccc(C)c3N(CC(=O)N3CCCCCCC3)C2=O)c1` (stereo unspecified) displayed a melting point of 214 to 216 °C.

On to `CC1(C)CC(=O)c2c(C3CC3)sc(-c3nccs3)c2C1`, for which the melting point lay within 103 to 105 °C.

Take `CN(Cc1ccccc1)c1c(-c2ccc(S(C)(=O)=O)cc2)cnn(-c2cccc(Cl)c2)c1=O`: the melting point fell in the range of 60 to 85 °C.

For `CC1CC(c2c[nH]c(-c3ccc(F)cc3)c2-c2ccncc2)=CCN1C` (stereo unspecified), the melting point was in the range of 198 to 201 °C.

Molecule `CCCCc1oc2ccccc2c1C(=O)Nc1ccc2cc(OCC(=O)OC)ccc2c1` had a melting point of 131 to 133 °C.

The molecule `O=C1C=C(OCCCCCCO)c2ccccc2C1=O` came in with a melting point of 96 to 98 °C.

Regarding `COC(=O)c1ccc(Cc2c(Cl)n(C)c3cc(Cl)c(CCNC(=O)N(C)C)cc23)c(OC)c1`, the melting point is 186 to 189 °C.

On to `N#Cc1ccc(-c2cc3c(O)ncnc3[nH]2)cc1`, for which the melting point was > 410 °C.

For `Cc1c2c(cc(=O)n1CC(C)O)CCC(c1ccccn1)C2` (stereo unspecified), the melting point was 300 °C.

In turn, `COc1ccc(S(=O)(=O)Nc2ncccc2/C=C/c2ccccc2)cc1` registered a melting point of 152 to 155 °C.

Consider `CC1(C)CC(=O)N(CCCCN2CCN(c3nsc4ccccc34)CC2)C(=O)C1`, for which the melting point is 146 to 147 °C.

The molecule `COc1cccc([C@H]2O[C@H](CC(=O)Nc3cc(CCC(=O)O)ccc3F)C(=O)N(CC(C)(C)CO)c3ccc(Cl)cc32)c1OC` yielded a melting point of 151 to 152 °C.

As for `CC(C)(C)C(=O)CN1C(=O)c2ccccc2C1=O`, the melting point is 96 to 99 °C.

Molecule `Nc1cc(N2CCCCC2)ccc1[N+](=O)[O-]` yielded a melting point of 100 to 101 °C.

`COc1cc(-c2nc3ccccc3n2Cc2ccc(Cl)cc2Cl)cc(OC)c1OC` returned a melting point of 186 °C.

As to `COc1cc(OC)cc(-c2oc3ncnc(N4CCCCC4)c3c2-c2ccccc2)c1`, the melting point was in the range of 152 to 153 °C.

The molecule `CC(C)Cn1nc(O)nc1Cl` had a melting point of 84 to 86 °C.

`COc1nn(-c2ccc(CBr)c(Cl)c2)nc1Cl` had a melting point of 141 to 142 °C.

`COC1=NS(=O)(=O)N(C)C(OCCc2ccccc2)=N1` registered a melting point of 74 to 77 °C.

Molecule `CN1CCN(C2=Nc3cc(Br)ccc3Nc3nn(C)nc32)CC1` returned a melting point of 183 to 184 °C.

`COC(=O)c1ccc(OCC2CC(=O)N(c3ccc(OC(C)(C)C)cc3)C2)cc1` (stereo unspecified) had a melting point of 126 to 128 °C.

As to `CN1C(=O)CCC1(O)c1ccc(Cl)c(S(=O)(=O)Cl)c1` (stereo unspecified), the melting point lay in the range of 112 to 114 °C.

For `CC(=NNC=O)c1ccncc1Cl`, the melting point came out at 175 °C.

`COc1ccccc1-n1c(=O)[nH]c2c(C(N)=O)nc(Nc3ccc(O)cc3)nc21` displayed a melting point of 223 to 224 °C.

As to `Cn1cccc1CCNC(=O)C(C#N)C(=O)c1nn(-c2ccccc2)c2c1Cc1ccccc1-2` (stereo unspecified), the melting point lay within 288 to 291 °C.

Take `O=C1Cc2cc(-n3cccc3)ccc2C(=O)N1`: the melting point fell in the range of 212 to 213 °C.

Consider `COc1cc(SC)sc1C1NC(C)(C)CO1` (stereo unspecified), for which the melting point was in the range of 56 to 58 °C.

As to `CC(O)c1ccc(-c2ccc(OCc3ccccc3)cc2)cc1` (single isomer, unassigned; (+)), the melting point was in the range of 158 to 159 °C.

Turning to `CCOC(=O)N1CCN(c2c(F)cc([N+](=O)[O-])c(F)c2CO)CC1`, the melting point was 147 to 149 °C.

`COc1ccc(-c2cncc(C#N)c2Nc2ccc3[nH]ccc3c2C)cc1OC` came in with a melting point of 130 to 133 °C.

Molecule `COc1cc(-c2nc3ccc(OCCN4CCOCC4)cc3n2Cc2ccccc2C(F)(F)F)cc(OC)c1OC` registered a melting point of 175 °C.

With `CCOC(=O)Cn1c(C(=O)NCc2nnc(C)n2-c2sc(C)cc2C(=O)c2ccccc2Cl)cc2ccccc21`, the melting point lay within 153 to 154 °C.

As to `Clc1ccc2nnnn2n1`, the melting point fell in the range of 104 to 105 °C.

`Cc1ncccc1COc1ccc(Cn2cc(CCC(=O)O)c(-c3ccccc3)c2)cc1` displayed a melting point of 158 to 159 °C.

`Cc1c(NC(=O)CC(C)(C)C)cc2c(c1C)OC(C)(C)C2Nc1ccccc1` (stereo unspecified): the melting point is 151 to 152 °C.

Regarding `O=C1c2ccccc2C(=O)N1Cc1cc(F)ccc1[N+](=O)[O-]`, the melting point lay in the range of 198 to 200 °C.

Turning to `N#CC(=C1CSc2ccccc2N1)c1ccc(Cl)cc1`, the melting point lay within 137 to 139 °C.

Regarding `CCCC(=O)c1cnc2c(OC)nccc2c1OS(C)(=O)=O`, the melting point lay in the range of 184 to 185 °C.

Take `CCCn1ncnc1COc1nn2c(-c3ccc(F)cc3)nncc2c1C(C)(C)C`: the melting point came to 154 °C.

Turning to `CCN(CC)c1ccc2cc(C(=O)OCCO)c(=O)oc2c1`, the melting point was 106 to 108 °C.

`C=CCNc1nc(-c2ccccc2)c(-c2ccc(=O)n(CC=C)n2)s1` displayed a melting point of 146 to 147 °C.

For `CC(C)C(=O)NC1=NN(c2cccc(C(F)(F)F)c2)CC1`, the melting point fell in the range of 167 to 168 °C.

The molecule `CC(C)(C)OC(=O)N[C@@H](Cc1ccc(O)c(O)c1)C(=O)O` yielded a melting point of 148 °C.

As for `COc1cc(C(F)(F)F)nc2c(N3CCC4(CC3)OCCO4)ccc(F)c12`, the melting point fell in the range of 101 to 103 °C.

`O=C(O)c1c2n(c3cc(N4CCNCC4)c(F)cc3c1=O)C(c1ccccc1)S2` (stereo unspecified) came in with a melting point of 200 to 205 °C.

`CC(C)Cc1nn(C)c(=O)c2c(SCCCO)c(Cc3ccccc3)sc12` registered a melting point of 60 to 65 °C.

In the case of `CCOC(=O)[C@H](CSCc1ccc(C)c(C)c1)NC(=O)C(CSC(C)=O)Cc1ccccc1` (stereo partly specified), the melting point lay in the range of 51 to 55 °C.

As to `Cc1ccc(F)cc1C(=O)Nc1ccc(C(=O)N2CCC=Cc3sccc32)c(Cl)c1`, the melting point was in the range of 125 to 132 °C.

`CC(C)(C)OC(=O)Nc1ccccc1O` showed a melting point of 145 °C.

On to `CCOC(=O)c1nc(-c2ccc(Cl)cc2Cl)n(-c2ccc(Cl)cc2)c1CF`, for which the melting point was 124 to 125 °C.

As for `COc1ccc(N2CCN(c3c(C)c(C)c4c(c3C)C(OCc3ccccn3)C(C)(C)O4)CC2)cc1` (stereo unspecified), the melting point lay within 120 to 121 °C.

`CCC(C)c1ccc(-n2c(-c3cc(C)c(OCCO)c(C)c3)nc3cc(F)ccc3c2=O)cc1` (stereo unspecified): the melting point fell in the range of 53.9 to 54.4 °C.

In the case of `O=C(Nc1ccc2ccc(Cl)nc2n1)c1ccc(Br)o1`, the melting point is 285 °C.

Molecule `NC(=O)c1c(F)ccc(OCc2cc3cc(C(F)(F)F)ccc3s2)c1F` returned a melting point of 150 to 152 °C.

Consider `O=C(Nc1cccc(-c2ccnc3c(C(=O)c4cccs4)cnn23)c1)OCCCN1CCS(=O)(=O)CC1`, for which the melting point was 148 to 159 °C.

With `COc1cc(C)cc2nc(S(=O)(=O)Nc3cc(C)cnc3F)nn12`, the melting point was 262 to 264 °C.

In the case of `CCCCOC(=O)c1ccc2ccc(C)nc2c1O`, the melting point turned out to be 50 °C.

For `CN1Cc2cccc3c2c(cn3C)S1(=O)=O`, the melting point amounted to 190 °C.

`COC(=O)CC(C)(C)C(=O)c1ccc2c(c1)CC(N1C(=O)c3ccccc3C1=O)C2` (stereo unspecified) registered a melting point of 115 to 117 °C.

In turn, `OCc1cnc(C(O)c2cc(F)ccc2F)c(F)c1` (stereo unspecified) registered a melting point of 94 to 96 °C.

On to `COCCOc1ccc(CCCOC(=O)NS(=O)(=O)NCCc2ccccn2)c(Oc2ncc(C(F)(F)F)cc2Cl)c1`, for which the melting point lay within 91 to 93 °C.

For the molecule `Cc1ccc(Sc2cncc3sc(C(=O)NN)cc23)cc1`, the melting point fell in the range of 176 to 178 °C.

The molecule `CCn1nc2c(N)nc3c(c2c1CC(C)C)CCCC3` showed a melting point of 206 to 207 °C.

For `COc1ccc(Cl)c(Oc2c(C=O)nc(N3CCOCC3)nc2NS(=O)(=O)c2ccc(C(C)(C)C)cc2)c1`, the melting point is 235 to 236 °C.

As to `CCCCCCCC(=O)NNC(=O)N1Cc2ccccc2Oc2ccc(Cl)cc21`, the melting point lay within 127 to 129 °C.

`C#CCOc1ccc(CCNC(=O)[C@@H](O)c2ccccc2)cc1OC`: the melting point was 81 to 83 °C.

With `CCCC(CCC)Nc1cc(C(=O)OC)ccc1N1C(=O)CCC1(CO)CO`, the melting point was 139 to 140 °C.

For `CCCCCCCCCCCCNC(=O)N1c2ccccc2C(C)CC1(C)C` (stereo unspecified), the melting point was in the range of 48 to 50 °C.

Molecule `c1ccc(N(Cc2ccc(OCOc3ccc(CN(c4ccccc4)c4ccccc4)cc3)cc2)c2ccccc2)cc1` displayed a melting point of 99 to 100 °C.

Take `CC(C)Oc1ccc(CCCOc2nn(Cc3ccccc3)cc2CC(=O)O)c(OCc2ccc(Cl)cc2Cl)c1`: the melting point was in the range of 103 to 104 °C.

In turn, `COc1ccc(CC(Br)C(N)=O)cc1C(=O)NCc1ccc(C(F)(F)F)cc1` (stereo unspecified) returned a melting point of 192 to 193 °C.

In turn, `C=C(C)N(c1c(C)cccc1C)S(C)(=O)=O` displayed a melting point of 80 to 81 °C.

As to `CC(=O)NC[C@@H]1C[C@H]1c1cccn2nc(C)cc12` (relative stereo), the melting point is 100 to 101 °C.

On to `CCOCc1nc2c(N)nc3cc(-c4cccnc4)ccc3c2n1CC(C)(C)OCCS(C)(=O)=O`, for which the melting point is 202 to 204 °C.

Consider `Cc1c(-c2cccnn2)ssc1=S`, for which the melting point turned out to be 193 °C.

`O=C(NC(c1ccc([N+](=O)[O-])cc1)P(=O)(Oc1ccccc1)Oc1ccccc1)N(c1ccccc1)c1ccccc1` (stereo unspecified) showed a melting point of 157 to 162 °C.

For the molecule `C[C@H](Cc1ccc(-c2cc(F)cc(F)c2)cc1)c1ccccc1`, the melting point is 49.8 to 51.3 °C.

Molecule `O=C(O)Cc1c(-c2ccccc2)c(=O)[nH]c2cc(Cl)ccc12` had a melting point of 175 °C.

On to `CS(=O)(=O)Nc1ccc(OCCN2CCN(C(=O)c3ccc(NS(C)(=O)=O)cc3)CC2)cc1`, for which the melting point was in the range of 170 to 175 °C.

For `Cc1n[nH]c2ccc(-c3ccc4nnn(Cc5ccc6ncccc6c5)c4n3)cc12`, the melting point is 246 to 249 °C.

`COc1cc(C)c(C(=O)c2c(C(F)(F)F)ccnc2OC)cc1OC` yielded a melting point of 125 to 127 °C.

`CCN(CC)C(=O)n1ccc(S(=O)(=O)c2c(C)cc(Br)cc2C)n1` had a melting point of 96 to 100 °C.

Turning to `CC(/C=C/c1c(C)sc(C)c1C)=C(F)\C=C\C(C)=C\CO`, the melting point was 106 to 108 °C.

As for `Cc1cc2c(cc1N1CC=CC1)OC(=O)C2C` (stereo unspecified), the melting point lay in the range of 81 to 82 °C.

The molecule `C=CCc1c(O)c(C)cc2c1C(C)(C)CC1(CC(C)(C)c3cc(O)c(C)cc3O1)O2` (stereo unspecified) showed a melting point of 102 to 104 °C.

The molecule `CCOC(=O)c1c(NCC(=O)c2ccccc2)c2c(Cl)cc(Cl)cc2n1C(=O)OC(C)(C)C` yielded a melting point of 143 to 144 °C.
